Assay [1] concerns HL-60. Put plainly: Antiproliferative activity against human HL60 cells assessed as inhibition of cell viability incubated for 48 hrs by MTS assay. The note with it: for IC50: HL-60, 48 h. It is filed as functional, cell-based. (In general: Formazan colour is commonly taken as a measure of viable cells.)
For another assay, the target named is Lactoylglutathione lyase (Homo sapiens, UniProt Q04760). Put plainly: Inhibition of recombinant human Glyoxalase-1 expressed in Escherichia coli BL21 (DE3) assessed as inhibition of S-D-lactoylglutathione formation using MG and reduced glutathione as substrate measured for 2 mins by spectrophotometric method.
Lactoylglutathione lyase, sequence (Q04760 whole entry): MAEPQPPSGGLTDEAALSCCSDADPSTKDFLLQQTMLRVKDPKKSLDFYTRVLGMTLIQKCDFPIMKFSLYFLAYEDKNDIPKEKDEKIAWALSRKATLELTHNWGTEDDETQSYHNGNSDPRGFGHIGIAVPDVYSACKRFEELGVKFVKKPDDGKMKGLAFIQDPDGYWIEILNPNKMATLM
Another assay is filed under the species Homo sapiens. As to the kind of experiment: Selectivity index, ratio of IC50 for recombinant human Glyoxalase-1 expressed in Escherichia coli BL21 (DE3) to IC50 for antiproliferative activity against human HL60 cells.
Assay [2] relates to HL-60. Put plainly: Induction of apoptosis in human HL60 cells assessed as nuclear condensation/fragmentation at 5 uM incubated for 6 hrs by Hoechst 33342 staining-based fluorescence microscopic method. It counts as functional, cell-based.
The subject of assay [3] is HL-60. Put plainly: Induction of apoptosis in human HL60 cells assessed as DNA ladder formation at 1 to 3 uM incubated for 5 hrs by agarose gel electrophoresis method. It counts as functional, cell-based.
In assay [4] the test system is HL-60. Put plainly: Antiproliferative activity against human HL60 cells assessed as inhibition of cell viability up to 50 uM incubated for 48 hrs by MTS assay. It is filed as functional, cell-based.
The test system of assay [5] is HL-60. Put plainly: Induction of apoptosis in human HL60 cells assessed as increase in MG level accumulation at 1 to 3 uM incubated for 8 to 24 hrs by HLPC analysis. It is filed as functional, cell-based.
In assay [6] the test system is HL-60. As to the kind of experiment: Induction of apoptosis in human HL60 cells assessed as caspase 3 activation at 0.1 to 0.5 uM incubated up to 24 hrs by flurometric analysis. It is filed as functional, cell-based.
The test system of assay [7] is HL-60. As to the kind of experiment: Induction of apoptosis in human HL60 cells assessed as caspase 9 activation at 0.1 to 0.5 uM incubated up to 24 hrs by flurometric analysis. It is filed as functional, cell-based.

Active and inactive are the calls of the source. No cut-off for these calls is given here.

What is called IC50 is the midpoint of a concentration-inhibition curve.

With `CC(C)(O)C1Cc2c(cc(O)c3c(=O)c(-c4ccc(O)cc4)coc23)O1` (racemic), the IC50 with HL-60 [1] was determined as 175 nM; at Lactoylglutathione lyase, 109 µM. Also, in the assay listed under Homo sapiens, the Ratio IC50 worked out at 625.
As to `CC(C)(O)[C@@H]1Cc2c(cc(O)c3c(=O)c(-c4ccc(O)cc4)coc23)O1`, the IC50 in the assay on HL-60 [1] is 90 nM; on Lactoylglutathione lyase it was 100 µM. In addition, the result in the assay on HL-60 [2] and in the assay with HL-60 [3] was Active.
`CC(C)(O)[C@H]1Cc2c(cc(O)c3c(=O)c(-c4ccc(O)cc4)coc23)O1`: the result in the assay on HL-60 [1], with HL-60 [4], in the assay with HL-60 [2], in the assay with HL-60 [3], in the assay with HL-60 [5] and in the assay with HL-60 [6] was inactive. In addition, in the assay with HL-60 [7], the outcome was inactive. The IC50 on Lactoylglutathione lyase was determined as 100 µM.

The values are drawn from ChEMBL document CHEMBL4622839, “Induction of enantio-selective apoptosis in human leukemia HL-60 cells by (S)-erypoegin K, an isoflavone isolated from Erythrina poeppigiana” (Bioorg Med Chem, 2020).
